From patent EP4722365A1, “DOUBLE-STRANDED NUCLEOTIDE COMPOUND FOR METABOLIC DISEASES AND USE THEREOF” (Visirna Therapeutics (Suzhou) Co., Ltd., priority 2023, dated 2024)

Tested on: DGAT2
Test: Inhibitory activity of dS319 on the target gene DGAT2 in non-naive Cynomolgus macaque (Example 11)
Format: in vivo
Details: for Average inhibition rate, %: 3mpk subcutaneous on days 1 and 29, liver
Method: In-vivo experiment: The in-vivo experimental designs for subcutaneous injection in non-naive Cynomolgus macaque, the administration and the sample collection method were shown in the table below. The day of administration to non-naive Cynomolgus macaque was defined as day 1, the day before it was day 0, the day after it was day 2, and so on. Each group had 2 animals. On days 1 and 29, the animals were injected subcutaneously with the solvent or 0.5 mL/kg of the test compound.
On day 0 (0 h) before administration by SC, and days 7, 29, 56 and 99 after administration, the liver sample was collected. Collection method: The animals was fasted for 12-16 hrs before sample collection. Collection of liver biopsy tissue: The collection process would be operated and recorded according to the SOP of the research institution.

dS319: sense (invAb)*acaccauaGfAfCfuauuugcuua[L96]; anti-sense Vpu*Af*a*GfcAfaauagUfcUfaUfgGfuGf* u
Average inhibition rate, % (D7): 84.9% | Average inhibition rate, % (D28): 93.2% | Average inhibition rate, % (D56): 89.4% | Average inhibition rate, % (D99): 88% | inhibitory activity on the target gene DGAT2 (conclusion in words, non-naive Cynomolgus macaque): long-term inhibitory activity
